Source: patent publication US10632110B2, “Pharmaceutical composition for preventing or treating cancer and method using thereof” (MEDPACTO INC., priority 2016, dated 2020)
Marks after values point to notes of the source that are not given here.

Key:
Assay type in all cases: in vivo, C57BL/6 mice
[1] = Measurement of weight caused by administration drug in melanoma mouse model
Method: (§1) In order to validate in vivo anti-tumor effects, female 5 week-old SPF C57BL/6 mice were purchased from Koatech Co. (South Korea). These mice were maintained in a room controlled at a temperature of about 22° C. while freely supplying food and water to them. 1 week after, 5×10^4 cells of B16F10 melanoma cell line (ATCC, CRL-6475™) were injected to these 6 week-old mice by subcutaneous injection. 8 week-old mice, 2 weeks after the injection of melanoma cell line, were used in the experiment.
(§2) As a carrier, 7 ml of 37% (v/v) […], 2.0 g of NaCl, 3.2 g of pepsin (Sigma-Aldrich), and distilled water were mixed together to prepare 1,000 ml of artificial gastric fluid. As an administration drug, N-((4-([1,2,4]triazolo[1,5-a]pyridin-6-yl)-5-(6-methylpyridin-2-yl)-1H-imidazol-2-yl)methyl)-2-fluoroaniline (hereinafter, referred to as “TEW-7197”) (Syngene, India) was dissolved in the carrier to prepare 2.5 mg/ml of TEW-7197 solution.
(§3) As for another administration drug, anti-PD-L1 monoclonal antibody (prepared by requesting to ANR therapeutics co., Ltd., host cell: HEK293F), anti-PD1 monoclonal hamster antibody (BioXCell, Cat. No. BE0033-2), anti-CTLA4 monoclonal hamster antibody (BioXCell, Cat. No. BE0131), human immunoglobulin G (IgG) (Thermo Scientific, Cat. No. 31154), and monoclonal hamster IgG (BioXCell, Cat. No. BE0091) were prepared.
(§4) The mouse models prepared in 1. were orally administered with 2.5 mg/ml of a TEW-7197 solution at a dose of 25 mg/weight kg once a day for 5 consecutive days of a week. Then, during the last 2 days, the TEW-7197 solution was not administered to them. These mice were administered with antibody at a dose of about 100 μg per mouse once every 2 days by abdominal injection. As for a control group for TEW-7197, a carrier administered group was used. As for a control group for antibody, a human IgG administered group and a hamster IgG administered group were used.
From the day that the drugs were administered (start date) to the 11th day, the weights of mice were measured every 2 days.

[2] = tested on: B16F10 melanoma cell line; assay: Test of tumor inhibitory effects of drug in mouse model; set-up: tumor inhibition rate (vs. vehicle, human IgG or hamster IgG administered group): concentration or dose not given beside the values; settings: for Tumor volume change (Δt = Vt − V0): TEW-7197 25 mg/kg oral, antibody about 100 μg per mouse
Method: as §1, §2, §3, §4
As described in 2., drug administration was carried out, and then 20 minutes after the last dose of the drug, mice were sacrificed, tumors were resected from the mice. Tumor volume was measured with calipers and calculated using Equation 1: Tumor volume (mm^3)=[length (mm)×width (mm)×height (mm)]/2 [Equation 1]
The difference between the initial tumor volume (V0) in the start date and the tumor volume after drug administration (Vt) was calculated, to calculate the change in tumor volume (Δt=Vt−V0). From the calculated tumor volume, the tumor inhibition rate (%) by drug administration was calculated.

[3] = tested on: B16F10 melanoma cell line; assay: Test of synergistic combination of drugs in mouse model; settings: 11 days after drug administration, TEW-7197 10 mg/kg oral, antibody about 100 μg per mouse
Method: In detail, as described in 1., C57BL/6 mice were prepared, and 1×10^4 cells of B16F10 melanoma cell line (ATCC, CRL-6475™) were injected to each of the mice. When the average tumor size of each group reached about 26.0 mm^3, drug administration was carried out.
As described in 1., TEW-7197, anti-CTLA4 antibody, anti-PD-L1 antibody, anti-PD1 antibody, human IgG, and hamster IgG were prepared as drugs.
The prepared mice were orally administered with a TEW-7197 solution at a dose of 10 mg/weight kg once a day for 5 consecutive days of a week. Then, during the last 2 days, the TEW-7197 solution was not administered. These mice were administered with antibody at a dose of about 100 μg per mouse once every 2 days by abdominal injection. In a negative control group, a vehicle was administered for TEW-7197, and human IgG or hamster IgG was administered for antibody. 11 days after the drug administration, tumor volume was measured with calipers and calculated as described in 3.

weight change of mice (average (%) ± standard deviation) ([1]; 2 days after administration, TEW-7197 25 mg/kg oral, antibody about 100 μg per mouse): 104.3 ± 1.2% | weight change of mice (average (%) ± standard deviation) ([1]; 4 days after administration, TEW-7197 25 mg/kg oral, antibody about 100 μg per mouse): 106.7 ± 3.5% | weight change of mice (average (%) ± standard deviation) ([1]; 6 days after administration, TEW-7197 25 mg/kg oral, antibody about 100 μg per mouse): 108.7 ± 4.5% | weight change of mice (average (%) ± standard deviation) ([1]; 8 days after administration, TEW-7197 25 mg/kg oral, antibody about 100 μg per mouse): 115.8 ± 6.4% | weight change of mice (average (%) ± standard deviation) ([1]; 11 days after administration, TEW-7197 25 mg/kg oral, antibody about 100 μg per mouse): 125.0 ± 6.5% | weight change of mice (average (%) ± standard deviation) ([1]; Start date, TEW-7197 25 mg/kg oral once a day 5 days a week, antibody about 100 μg per mouse every 2 days abdominal injection): 100.0 ± 0.0% | weight change caused by drug (in words) ([1]; up to 11th day, Table 2): barely had significant weight change
SMILES: Cc1cccc(-c2[nH]c(CNc3ccccc3F)nc2-c2ccc3ncnn3c2)n1 [TEW-7197, N-((4-([1,2,4]triazolo[1,5-a]pyridin-6-yl)-5-(6-methylpyridin-2-yl)-1H-imidazol-2-yl)methyl)-2-fluoroaniline]
tumor inhibition rate (vs. vehicle, human IgG or hamster IgG administered group) ([2]; 2 days after administration): 21.3% | Tumor volume change (Δt = Vt − V0) ([2]; 2 days after administration): 30.4 ± 6.6 mm^3 | tumor inhibition rate (vs. vehicle, human IgG or hamster IgG administered group) ([2]; 4 days after administration): 21.7% | Tumor volume change (Δt = Vt − V0) ([2]; 4 days after administration): 100.4 ± 11.4* mm^3 | tumor inhibition rate (vs. vehicle, human IgG or hamster IgG administered group) ([2]; 6 days after administration): 23.0% | Tumor volume change (Δt = Vt − V0) ([2]; 6 days after administration): 174.5 ± 29.6** mm^3 | tumor inhibition rate (vs. vehicle, human IgG or hamster IgG administered group) ([2]; 8 days after administration): 22.9% | Tumor volume change (Δt = Vt − V0) ([2]; 8 days after administration): 455.3 ± 67.1* mm^3 | tumor inhibition rate (vs. vehicle, human IgG or hamster IgG administered group) ([2]; 11 days after administration): 20.9% | Tumor volume change (Δt = Vt − V0) ([2]; 11 days after administration): 1084.0 ± 179.5* mm^3 | Tumor volume change (Δt = Vt − V0) ([2]; Start date): 0.0 ± 0.0 mm^3 | tumor volume decrease as compared with the negative control group ([3]; FIG. 1A (anti-CTLA4 series)): about 10.1% | tumor volume decrease as compared with the negative control group ([3]; FIG. 1B (anti-PD-L1 series)): about 9.2% | tumor volume decrease as compared with the negative control group ([3]; FIG. 1C (anti-PD1 series)): about 8.1%
